Legend:
[1] = system: SNAP/FLAG-hGLP1R^A316T versus ^WT; assay: GLP-1R conformational ECD opening TR-FRET assay; format: cell-based, human; conditions: serial doses, 30 min; n = 5; Fig. 8E
Experimental: Nb37 bystander NanoBiT assays
INS-1 832/3 Glp1r-/- cells were seeded in 6-well plates and co-transfected with the following plasmids:
200 ng pSNAP/FLAG-hGLP1RWT or A316T, 500 ng Gαs (human, short isoform), 500 ng Gβ1 (human), 500 ng Gγ2 (human), 100 ng RIC8B (human, isoform 2), and either 100 ng LgBiT-CAAX (KRAS CAAX motif N-terminally fused with LgBiT) or 500 ng Endofin-LgBiT (Endofin FYVE domain C-terminally fused with LgBiT), plus 100 ng (plasma membrane assay) or 500 ng (endosomal assay) SmBiT-Nb37 [Nb37 cDNA synthesised by GenScript C- terminally fused to SmBiT with a 15 amino acid flexible linker (123) ] and adjusted for total DNA with pcDNA3.1 for the LgBiT-CAAX transfection. 24 hours after transfection, cells were exposed to NanoGlo Live Cell Reagent (Promega) with furimazine (1:20 dilution) and bioluminescence read in a Flexstation 3 plate reader for 8 min before and 30 min after stimulation by […]
AUCs were calculated for each agonist concentration and fitted to log(agonist) versus response four-parameter curves using GraphPad Prism 10.1.2, with logEC50 (potency) and Emax (efficacy) calculated for each replicate dose response curve. Baseline endosomal over plasma membrane bioluminescence ratios were also calculated.
GLP- 1R conformational ECD opening time resolved-fluorescence resonance energy transfer (TR- […]
signal serially monitored for 30 min. […]

[2] = system: SNAP/FLAG-hGLP1R^A316T versus ^WT; assay: Insulin secretion in EndoC-βH3 GLP1R^-/--enriched cells; format: cell-based, human; conditions: 15 mM glucose + 100 nM, 60 min; n = 4; Fig. 6C,D
Experimental: Purified mouse islets used for insulin secretion assays were treated in 24-well nonadherent plates. Eight islets were used per replicate with three technical replicates per condition. For acute studies, islets were preincubated for 1 hour in KRBH buffer containing 0.1% (w/v) bovine serum albumin (BSA) (10775835001, Roche) and 3 mM glucose before incubation with 11 mM glucose ± 100 nM GLP-1RAs or the GLP-1R antagonist exendin-9 in KRBH buffer in a shaking 37°C water bath (80 rpm) for 1 hour. For overnight studies, preincubation was carried out in RPMI 1640 medium containing FBS, P/S, and 3 mM glucose, followed by treatment with medium supplemented with 11 mM glucose ± GLP-1RAs for 16 hours. […] Insulin secretion assays with the human EndoC-βH3 cell line were performed following 3 weeks of treatment with 4-hydroxytamoxifen as above, followed by transduction with pAV-SNAP/FLAG-hGLP1R^WT or ^A316T adenoviruses, with insulin secretion assessed as previously described ([54]), with the following modifications: After preincubation with 0.5 mM glucose KRBH buffer, cells were stimulated with 15 mM glucose ± exendin-4 for 60 min. Total and secreted insulin samples from islets and cells were stored at −20°C until quantification using an Insulin Ultra-Sensitive HTRF kit (#62IN2PEG, Revvity) in a PHERAstar plate reader (BMG Labtech), according to the manufacturer’s instructions.

[3] = system: hGLP1R^A316T/A316T versus hGLP1R^+/+ mice; assay: Plasma insulin 10 min into IPGTT, chow-fed mice; format: in vivo, mouse; conditions: chow diet
Experimental: To measure insulin release during IPGTTs, 10 μl of blood samples were collected via tail venipuncture 10 min after a glucose challenge.
Plasma was collected into potassium EDTA cuvettes (Microvette CB 300, 16.444.100, Starstedt) and stored on ice before centrifugation at 8,000g for 10 min at 4°C to collect plasma supernatants in fresh Eppendorf tubes kept at −80°C until further analysis.

Row | Substance | TR-FRET (ECD opening) in response to agonist, A316T versus WT [1] | Agonist-stimulated insulin secretory fold increases, A316T versus WT [2] | Plasma insulin increase in response to agonist, hGLP1R^A316T/A316T mice ([3]; 10 min into IPGTT, relative to effect in hGLP1R^+/+, Fig. 1L,M) | Plasma insulin levels in response to agonist, hGLP1R^+/+ mice ([3]; 10 min into IPGTT, versus vehicle, Fig. 1L,M) | Agonist-dependent plasma insulin rises (vehicle fold changes), A316T/A316T versus +/+ ([3]; significant at the 6-hour time point, Fig. 1N)
1 | GLP-1(7-36)NH2 | significantly increased | – | – | – | –
2 | exendin-4 | – | significantly reduced | attenuated | increased | reduced

Source: paper PMC13267291, “In vivo functional profiling and structural characterization of the human GLP1R A316T variant” (Science Advances, 2026)
